Values quoted from earlier work as cited in patent publication US4271152A, “Psycho-pharmacological peptides” (Akzo N.V., priority 1979, dated 1981).
“Also recorded” adds a separate entry of the source.

What was measured:
[1] = tested on: avoidance behaviour of rats; conditions: pole-jumping test; for extinction of the (pole-jumping) avoidance behaviour: background knowledge / earlier Dutch application
[2] = tested on: opiate receptor
[3] = can be antagonized by naloxon

Substance | extinction of the (pole-jumping) avoidance behaviour [1] | affinity to the opiate receptor [2] | counteraction by morphine antagonists (naloxon, naltrexon) of the inhibition of extinction [1] | analgetic effect [3]
α-endorphin | inhibit the extinction of the avoidance behaviour; also recorded: delayed the extinction of the avoidance behaviour | affinity to the opiate receptor | – | –
D-Ala^2 -Met-enkephalin | – | affinity to the opiate receptor | – | –
Leu-enkephaline | – | affinity to the opiate receptor | – | –
β-endorphin (YGGFMTSEKSQTPLVTLFKNAIIKNAYKKGE; Beta-endorphin; UniProt P01189 237-267, looked up) | inhibits the extinction | – | cannot be counteracted by known morphine antagonists | analgetic effect
γ-endorphin | accelerate the extinction of the avoidance behaviour | – | – | –
Met-enkephalin | inhibit the extinction of the avoidance behaviour | affinity to the opiate receptor | – | –
